Test results published in the supplement of paper PMC11208160.
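Further: IS621 bridge recombinase in Escherichia coli cells against a fixed T5 target plasmid.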

Assay: recombinant UMI read abundance after kanamycin selection (control-corrected) (log10(CPM+1)); higher = more efficient recombination; extreme values may be limits of the assay; sequences stand for … in AGTGCAGAGAAAATCGGCCAGTTTTCTCTGCCTGCAGTCCGCATGCCGTGGGACCCCTTGGGTTCTAACCTGTTGCCTAGATTTATGCAGCGGACTGCCTTTCTCCCAAAGTGATAAACCGG…AGGTTGGTTTCACT; site = the 11-nt donor
Outline: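 In Escherichia coli, a pool of donor and donor-binding-loop pairs, each with a 12-nt UMI, was tested for the IS621 bridge recombinase. Plating was on IPTG (0.07 mM) plus kanamycin, or without selection, in two replicates. Recombinant UMIs were amplified by PCR across the donor–target junction and sequenced, and counts were reported as log10(CPM+1) after averaging and control-derived scaling.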
In the case of “AGGCGTGCATGGACCGGTTTTCCCGGTAATCCGTATTTGGA (site AGGCGTGCTTC)”, the “recombinant UMI read abundance (log10)” value is reported as 0.745. With “AGGCTAGCATGGACCGGTTTTCCCGGTAATCCGTATTTGTT (site AGACTAGCTAA)” the “recombinant UMI read abundance (log10)” value was 0.334. With “AGGCTAGCATGGACCGGTTTTCCCGGTAATCCGTATTTGTT (site AGCCTAGCTAA)” the “recombinant UMI read abundance (log10)” value was 0.017. With “AGGCTAGCATGGACCGGTTTTCCCGGTAATCCGTATTTGTT (site AGGCTAGCTAA)” the “recombinant UMI read abundance (log10)” value was 0.779. For “AGGCTAGCATGGACCGGTTTTCCCGGTAATCCGTATTTGTT (site AGTCTAGCTAA)”, the “recombinant UMI read abundance (log10)” value was 0.0182. With “AGGCTGGCATGGACCGGTTTTCCCGGTAATCCGTATTTGTC (site AGGCTGGCTGA)” the “recombinant UMI read abundance (log10)” value was 0. With “AGGGAAACATGGACCGGTTTTCCCGGTAATCCGTATTTGCA (site AGGAAGACTTG)” the “recombinant UMI read abundance (log10)” value was 0.301. For “AGGGAAACATGGACCGGTTTTCCCGGTAATCCGTATTTGCA (site AGGGAAACTTG)”, the “recombinant UMI read abundance (log10)” value was 1.42. With “AGGGAACCATGGACCGGTTTTCCCGGTAATCCGTATTTGAT (site AGGGAACCTAT)” the “recombinant UMI read abundance (log10)” value was 0. With “AGGGAACCATGGACCGGTTTTCCCGGTAATCCGTATTTGAT (site CGGGAACCTAT)” the “recombinant UMI read abundance (log10)” value was 0. With “AGGGAACCATGGACCGGTTTTCCCGGTAATCCGTATTTGAT (site GGGGAACCTAT)” the “recombinant UMI read abundance (log10)” value was 0. With “AGGGAACCATGGACCGGTTTTCCCGGTAATCCGTATTTGAT (site TGGGAACCTAT)” the “recombinant UMI read abundance (log10)” value was 0. For “AGGGAGACATGGACCGGTTTTCCCGGTAATCCGTATTTGCC (site AGGGAGACTGG)”, the “recombinant UMI read abundance (log10)” value was 1.26. For “AGGGAGACATGGACCGGTTTTCCCGGTAATCCGTATTTGCG (site AGGAAGACTTG)”, the “recombinant UMI read abundance (log10)” value was 0.64. With “AGGGAGACATGGACCGGTTTTCCCGGTAATCCGTATTTGCG (site AGGGAGACTCG)” the “recombinant UMI read abundance (log10)” value was 1.54. In the case of “AGGGAGCCATGGACCGGTTTTCCCGGTAATCCGTATTTGCC (site AGGGAGCCTGG)”, the “recombinant UMI read abundance (log10)” value is reported as 0. In the case of “AGGGCTACATGGACCGGTTTTCCCGGTAATCCGTATTTGAC (site AGGACTACTGT)”, the “recombinant UMI read abundance (log10)” value is reported as 1.24. In the case of “AGGGCTACATGGACCGGTTTTCCCGGTAATCCGTATTTGAC (site AGGCCTACTGT)”, the “recombinant UMI read abundance (log10)” value is reported as 0. In the case of “AGGGCTACATGGACCGGTTTTCCCGGTAATCCGTATTTGAC (site AGGGCTACTGT)”, the “recombinant UMI read abundance (log10)” value is reported as 2.55. With “AGGGCTACATGGACCGGTTTTCCCGGTAATCCGTATTTGAC (site AGGTCTACTGT)” the “recombinant UMI read abundance (log10)” value was 1. With “AGGGTCCCATGGACCGGTTTTCCCGGTAATCCGTATTTGTC (site AGGGTCCCTGA)” the “recombinant UMI read abundance (log10)” value was 0.534. In the case of “AGGTAAACATGGACCGGTTTTCCCGGTAATCCGTATTTGAG (site AGGTAAACTCT)”, the “recombinant UMI read abundance (log10)” value is reported as 2.07. For “AGGTAGACATGGACCGGTTTTCCCGGTAATCCGTATTTGCC (site AGGAAGACTTG)”, the “recombinant UMI read abundance (log10)” value was 0. In the case of “AGGTAGACATGGACCGGTTTTCCCGGTAATCCGTATTTGCC (site AGGTAGACTGG)”, the “recombinant UMI read abundance (log10)” value is reported as 2.79. For “AGGTAGGCATGGACCGGTTTTCCCGGTAATCCGTATTTGTT (site AGGTAGGCTAA)”, the “recombinant UMI read abundance (log10)” value was 1.94. With “AGGTATCCATGGACCGGTTTTCCCGGTAATCCGTATTTGTC (site AGGTATCCTGA)” the “recombinant UMI read abundance (log10)” value was 0.494. For “AGGTCAGCATGGACCGGTTTTCCCGGTAATCCGTATTTGAT (site AGGTCAGCTAT)”, the “recombinant UMI read abundance (log10)” value was 1.84. In the case of “AGGTCTACATGGACCGGTTTTCCCGGTAATCCGTATTTGAC (site AGGACTACTGT)”, the “recombinant UMI read abundance (log10)” value is reported as 0. For “AGGTCTACATGGACCGGTTTTCCCGGTAATCCGTATTTGAC (site AGGCCTACTGT)”, the “recombinant UMI read abundance (log10)” value was 2.1. In the case of “AGGTCTACATGGACCGGTTTTCCCGGTAATCCGTATTTGAC (site AGGGCTACTGT)”, the “recombinant UMI read abundance (log10)” value is reported as 0.00558. With “AGGTCTACATGGACCGGTTTTCCCGGTAATCCGTATTTGAC (site AGGTCTACTGT)” the “recombinant UMI read abundance (log10)” value was 1.18. For “AGGTGCCCATGGACCGGTTTTCCCGGTAATCCGTATTTGGA (site AGGTGCCCTTC)”, the “recombinant UMI read abundance (log10)” value was 0.00688. In the case of “AGGTGGGCATGGACCGGTTTTCCCGGTAATCCGTATTTGTG (site AGGTGGGCTCA)”, the “recombinant UMI read abundance (log10)” value is reported as 1.56. For “AGGTTAGCATGGACCGGTTTTCCCGGTAATCCGTATTTGAG (site AGGTTAGCTCT)”, the “recombinant UMI read abundance (log10)” value was 1.94. In the case of “AGGTTCCCATGGACCGGTTTTCCCGGTAATCCGTATTTGTA (site AGGTTCCCTAA)”, the “recombinant UMI read abundance (log10)” value is reported as 0.0166. With “AGGTTCCCATGGACCGGTTTTCCCGGTAATCCGTATTTGTA (site AGGTTCCCTCA)” the “recombinant UMI read abundance (log10)” value was 0.0195. With “AGGTTCCCATGGACCGGTTTTCCCGGTAATCCGTATTTGTA (site AGGTTCCCTGA)” the “recombinant UMI read abundance (log10)” value was 0. For “AGGTTCCCATGGACCGGTTTTCCCGGTAATCCGTATTTGTA (site AGGTTCCCTTA)”, the “recombinant UMI read abundance (log10)” value was 1.5. With “AGGTTGCCATGGACCGGTTTTCCCGGTAATCCGTATTTGTG (site AGGTTACCTCA)” the “recombinant UMI read abundance (log10)” value was 0.00238. For “AGGTTGCCATGGACCGGTTTTCCCGGTAATCCGTATTTGTG (site AGGTTCCCTCA)”, the “recombinant UMI read abundance (log10)” value was 0.00991. In the case of “AGGTTGCCATGGACCGGTTTTCCCGGTAATCCGTATTTGTG (site AGGTTGCCTCA)”, the “recombinant UMI read abundance (log10)” value is reported as 0.00688. For “AGGTTGCCATGGACCGGTTTTCCCGGTAATCCGTATTTGTG (site AGGTTTCCTCA)”, the “recombinant UMI read abundance (log10)” value was 0.00563. With “AGTAATGCATGGACCGGTTTTCCCGGTAATCCGTATTTGAG (site AGTAATGCTCT)” the “recombinant UMI read abundance (log10)” value was 2.15. In the case of “AGTACACCATGGACCGGTTTTCCCGGTAATCCGTATTTGAC (site AGTACACCTGT)”, the “recombinant UMI read abundance (log10)” value is reported as 0. For “AGTACACCATGGACCGGTTTTCCCGGTAATCCGTATTTGAC (site CGTACACCTGT)”, the “recombinant UMI read abundance (log10)” value was 0.0138. In the case of “AGTACACCATGGACCGGTTTTCCCGGTAATCCGTATTTGAC (site GGTACACCTGT)”, the “recombinant UMI read abundance (log10)” value is reported as 0. In the case of “AGTACACCATGGACCGGTTTTCCCGGTAATCCGTATTTGAC (site TGTACACCTGT)”, the “recombinant UMI read abundance (log10)” value is reported as 0. With “AGTAGATCATGGACCGGTTTTCCCGGTAATCCGTATTTGGA (site AGTAGATCTTC)” the “recombinant UMI read abundance (log10)” value was 1.45. With “AGTAGGTCATGGACCGGTTTTCCCGGTAATCCGTATTTGAA (site AGTAGGTCTTT)” the “recombinant UMI read abundance (log10)” value was 1.07. For “AGTCACTCATGGACCGGTTTTCCCGGTAATCCGTATTTGCA (site AGTCACTCTTG)”, the “recombinant UMI read abundance (log10)” value was 2.8. For “AGTCAGCCATGGACCGGTTTTCCCGGTAATCCGTATTTGGA (site AGTCAGCCTTC)”, the “recombinant UMI read abundance (log10)” value was 0.0114. In the case of “AGTCCACCATGGACCGGTTTTCCCGGTAATCCGTATTTGGG (site AGTCCACCTCC)”, the “recombinant UMI read abundance (log10)” value is reported as 0.00962. With “AGTCGGTCATGGACCGGTTTTCCCGGTAATCCGTATTTGGC (site AGTCGGTCTGC)” the “recombinant UMI read abundance (log10)” value was 0. With “AGTCTGACATGGACCGGTTTTCCCGGTAATCCGTATTTGCT (site AGTCTGACTAG)” the “recombinant UMI read abundance (log10)” value was 1.87. For “AGTGCCACATGGACCGGTTTTCCCGGTAATCCGTATTTGAG (site AGTGCCACTCT)”, the “recombinant UMI read abundance (log10)” value was 0.4. With “AGTGCCCCATGGACCGGTTTTCCCGGTAATCCGTATTTGCT (site AGTGCCCCTAG)” the “recombinant UMI read abundance (log10)” value was 0.594. With “AGTGCTCCATGGACCGGTTTTCCCGGTAATCCGTATTTGAA (site AGTGCTCCTTT)” the “recombinant UMI read abundance (log10)” value was 0.416. In the case of “AGTTACACATGGACCGGTTTTCCCGGTAATCCGTATTTGCC (site AGTTACACTGG)”, the “recombinant UMI read abundance (log10)” value is reported as 2.42. In the case of “AGTTATGCATGGACCGGTTTTCCCGGTAATCCGTATTTGGA (site AATTATGCTTC)”, the “recombinant UMI read abundance (log10)” value is reported as 0.159. In the case of “AGTTATGCATGGACCGGTTTTCCCGGTAATCCGTATTTGGA (site ACTTATGCTTC)”, the “recombinant UMI read abundance (log10)” value is reported as 0.849. In the case of “AGTTATGCATGGACCGGTTTTCCCGGTAATCCGTATTTGGA (site AGTTATGCTTC)”, the “recombinant UMI read abundance (log10)” value is reported as 0.923. For “AGTTATGCATGGACCGGTTTTCCCGGTAATCCGTATTTGGA (site ATTTATGCTTC)”, the “recombinant UMI read abundance (log10)” value was 0.709. With “AGTTGTACATGGACCGGTTTTCCCGGTAATCCGTATTTGGT (site AGTTGTACTAC)” the “recombinant UMI read abundance (log10)” value was 0.56. In the case of “AGTTGTCCATGGACCGGTTTTCCCGGTAATCCGTATTTGGG (site AGTTGTCCTCC)”, the “recombinant UMI read abundance (log10)” value is reported as 0.0152. With “AGTTGTGCATGGACCGGTTTTCCCGGTAATCCGTATTTGAA (site AGTTGTGCTTT)” the “recombinant UMI read abundance (log10)” value was 0.535. For “AGTTGTTCATGGACCGGTTTTCCCGGTAATCCGTATTTGGC (site AGTTGTTCTGC)”, the “recombinant UMI read abundance (log10)” value was 1.34. For “AGTTTGGCATGGACCGGTTTTCCCGGTAATCCGTATTTGCT (site AGTTTGGCTAG)”, the “recombinant UMI read abundance (log10)” value was 0.0222. With “AGTTTGGCATGGACCGGTTTTCCCGGTAATCCGTATTTGCT (site CGTTTGGCTAG)” the “recombinant UMI read abundance (log10)” value was 0. In the case of “AGTTTGGCATGGACCGGTTTTCCCGGTAATCCGTATTTGCT (site GGTTTGGCTAG)”, the “recombinant UMI read abundance (log10)” value is reported as 0. With “AGTTTGGCATGGACCGGTTTTCCCGGTAATCCGTATTTGCT (site TGTTTGGCTAG)” the “recombinant UMI read abundance (log10)” value was 0.0837. In the case of “ATAAAGGCATGGACCGGTTTTCCCGGTAATCCGTATTTGGG (site ATAAAGGCTCC)”, the “recombinant UMI read abundance (log10)” value is reported as 1.03. For “ATAACTCCATGGACCGGTTTTCCCGGTAATCCGTATTTGCC (site ATAACTCCTGG)”, the “recombinant UMI read abundance (log10)” value was 1.64. With “ATAAGCACATGGACCGGTTTTCCCGGTAATCCGTATTTGAT (site ATAAGCACTAT)” the “recombinant UMI read abundance (log10)” value was 2.23. For “ATAAGCCCATGGACCGGTTTTCCCGGTAATCCGTATTTGAC (site ATAAGACCTGT)”, the “recombinant UMI read abundance (log10)” value was 0. With “ATAAGCCCATGGACCGGTTTTCCCGGTAATCCGTATTTGAC (site ATAAGCCCTGT)” the “recombinant UMI read abundance (log10)” value was 2.3.
